Measured values from ChEMBL document CHEMBL1201862, “PubChem BioAssay data set” (2004).
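Five concentrations, 48 hours, 96-well plates. GI50 is the concentration that inhibits growth by half.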 Active and inactive are the calls of the source. Cut-off read from the data, not from the text of the source: active = GI50 up to about 1.1 µM and inactive = higher.

Legend:
Assay in all cases: DTP human tumour cell line panel, 48 h
[1] = system: 786-0
[2] = system: A498
[3] = system: A549
[4] = system: ACHN
[5] = system: BT-549
[6] = system: CAKI-1
[7] = system: CCRF-CEM
[8] = system: COLO 205
[9] = system: DU-145
[10] = system: EKVX
[11] = system: HCC 2998
[12] = system: HCT-116
[13] = system: HCT-15
[14] = system: HL-60
[15] = system: HOP-62
[16] = system: HOP-92
[17] = system: HT-29
[18] = system: Hs-578T
[19] = system: IGROV-1
[20] = system: K562
[21] = system: KM12
[22] = system: LOX IMVI
[23] = system: M14
[24] = system: MCF7
[25] = system: MDA-MB-231
[26] = system: MDA-MB-435
[27] = system: MDA-N
[28] = system: MOLT-4
[29] = system: NCI-H226
[30] = system: NCI-H23
[31] = system: NCI-H460
[32] = system: NCI-H522
[33] = system: NCI/ADR-RES
[34] = system: OVCAR-3
[35] = system: OVCAR-4
[36] = system: OVCAR-5
[37] = system: OVCAR-8
[38] = system: PC-3
[39] = system: RPMI-8226
[40] = system: RXF 393
[41] = system: SF-268
[42] = system: SF-295
[43] = system: SF-539
[44] = system: SK-MEL-28
[45] = system: SK-MEL-2
[46] = system: SK-MEL-5
[47] = system: SK-OV-3
[48] = system: SN12C
[49] = system: SNB-19
[50] = system: SNB-75
[51] = system: SR
[52] = system: SW-620
[53] = system: T47D
[54] = system: TK-10
[55] = system: U-251
[56] = system: UACC-257
[57] = system: UACC-62
[58] = system: UO-31
[59] = system: Malme-3M

CCCCCCCCCCCCCCNC(=O)CCC(NC(=O)c1ccc(N(C)Cc2cnc3nc(N)nc(N)c3n2)cc1)C(=O)NCCCCCCCCCCCCCC (stereo unspecified)
GI50 [1]: 1.28 µM (inactive) | GI50 [2]: 14.5 µM (inactive) | GI50 [3]: 5.45 µM (inactive) | GI50 [4]: 6.38 µM (inactive) | GI50 [5]: 12.3 µM (inactive) | GI50 [6]: 10.4 µM (inactive) | GI50 [7]: 0.773 µM (active) | GI50 [8]: 11.8 µM (inactive) | GI50 [9]: 13.9 µM (inactive) | GI50 [10]: 23.9 µM (inactive) | GI50 [11]: 6.01 µM (inactive) | GI50 [12]: 0.698 µM (active) | GI50 [13]: 2.52 µM | GI50 [14]: 0.355 µM (active) | GI50 [15]: 9.29 µM (inactive) | GI50 [16]: 14.8 µM (inactive) | GI50 [17]: 4.13 µM (inactive) | GI50 [18]: 8.39 µM (inactive) | GI50 [19]: 7.14 µM (inactive) | GI50 [20]: < 0.0185 µM (active) | GI50 [21]: 2.45 µM (inactive) | GI50 [22]: 0.437 µM (active) | GI50 [23]: 0.441 µM (active) | GI50 [24]: 4.48 µM (inactive) | GI50 [25]: 8.73 µM (inactive) | GI50 [26]: 0.207 µM (active) | GI50 [27]: 0.244 µM (active) | GI50 [28]: 0.982 µM (active) | GI50 [29]: > 52.1 µM (inactive) | GI50 [30]: 3.8 µM (inactive) | GI50 [31]: 0.363 µM (active) | GI50 [32]: 5.04 µM (inactive) | GI50 [33]: 39.8 µM (inactive) | GI50 [34]: 13.4 µM (inactive) | GI50 [35]: 12.5 µM (inactive) | GI50 [36]: 19.2 µM (inactive) | GI50 [37]: 4.36 µM (inactive) | GI50 [38]: 0.665 µM (active) | GI50 [39]: 3.07 µM (inactive) | GI50 [40]: 11.6 µM (inactive) | GI50 [41]: 2.49 µM (inactive) | GI50 [42]: 7.19 µM (inactive) | GI50 [43]: 908 nM (active) | GI50 [44]: 13.8 µM (inactive) | GI50 [45]: 31 µM (inactive) | GI50 [46]: 1.77 µM (inactive) | GI50 [47]: 10.4 µM (inactive) | GI50 [48]: 9.68 µM (inactive) | GI50 [49]: 17.1 µM (inactive) | GI50 [50]: 14.3 µM (inactive) | GI50 [51]: 0.139 µM (active) | GI50 [52]: 0.288 µM (active) | GI50 [53]: 8.51 µM (inactive) | GI50 [54]: > 39.1 µM (inactive) | GI50 [55]: 2.24 µM (inactive) | GI50 [56]: 10.7 µM (inactive) | GI50 [57]: 2.63 µM (inactive) | GI50 [58]: 13.8 µM (inactive)

Oc1ccccc1C(Sc1nc2ccccc2s1)Sc1nc2ccccc2s1
GI50 [1]: > 100 µM (inactive) | GI50 [2]: > 100 µM (inactive) | GI50 [3]: > 100 µM (inactive) | GI50 [4]: > 100 µM (inactive) | GI50 [5]: 56.4 µM (inactive) | GI50 [6]: 34.4 µM (inactive) | GI50 [7]: 26.5 µM (inactive) | GI50 [8]: 52.4 µM (inactive) | GI50 [9]: 24.2 µM (inactive) | GI50 [10]: 23.4 µM (inactive) | GI50 [11]: > 100 µM (inactive) | GI50 [12]: > 100 µM (inactive) | GI50 [13]: 51.3 µM | GI50 [14]: 37.1 µM (inactive) | GI50 [15]: > 100 µM (inactive) | GI50 [16]: 22.8 µM (inactive) | GI50 [17]: > 100 µM (inactive) | GI50 [18]: 24.1 µM (inactive) | GI50 [19]: 29.9 µM (inactive) | GI50 [20]: 56.2 µM (inactive) | GI50 [21]: 89.1 µM (inactive) | GI50 [22]: 67.5 µM (inactive) | GI50 [23]: > 100 µM (inactive) | GI50 [24]: > 100 µM (inactive) | GI50 [25]: > 100 µM (inactive) | GI50 [26]: 73.5 µM (inactive) | GI50 [27]: > 100 µM (inactive) | GI50 [28]: 44.2 µM (inactive) | GI50 [59]: 28.4 µM (inactive) | GI50 [29]: 36.3 µM (inactive) | GI50 [30]: 58.7 µM (inactive) | GI50 [31]: > 100 µM (inactive) | GI50 [32]: 17.6 µM (inactive) | GI50 [33]: 57.8 µM (inactive) | GI50 [34]: 31.3 µM (inactive) | GI50 [35]: 76.4 µM (inactive) | GI50 [36]: > 100 µM (inactive) | GI50 [37]: 85.3 µM (inactive) | GI50 [38]: 67.1 µM (inactive) | GI50 [39]: 32.6 µM (inactive) | GI50 [40]: > 100 µM (inactive) | GI50 [41]: 71.6 µM (inactive) | GI50 [42]: 41.6 µM (inactive) | GI50 [44]: > 100 µM (inactive) | GI50 [45]: > 100 µM (inactive) | GI50 [46]: 44 µM (inactive) | GI50 [47]: > 100 µM (inactive) | GI50 [48]: > 100 µM (inactive) | GI50 [49]: 64.6 µM (inactive) | GI50 [50]: > 100 µM (inactive) | GI50 [51]: 43.7 µM (inactive) | GI50 [52]: > 100 µM (inactive) | GI50 [53]: 19.3 µM (inactive) | GI50 [54]: > 100 µM (inactive) | GI50 [55]: 57.7 µM (inactive) | GI50 [56]: > 100 µM (inactive) | GI50 [57]: 69.2 µM (inactive) | GI50 [58]: 6.55 µM (inactive)
